{"source": "patent US11925178B1", "about": "“2′-alkyloxy-6′-phenyl[3,4′-bipyridine]-3′-carbonitrile as an insecticidal agent against Aphis craccivora” (priority 2023, dated 2024)", "key": {"[1]": {"tested_on": "adults of cowpea aphid (Aphis craccivora)", "experiment": "Leaf dipping insecticidal bioassay, adults of cowpea aphid", "type": "in vivo", "settings": "24 h; for LC50: Aphis craccivora, foliar; for Toxic ratio: Acetamiprid's LC50 / the compound's LC50", "procedure": "(§1) The original batches of cowpea aphid insects were collected from pest's laboratory, Plant Protection Research Institute, Agricultural Research Center. The target compounds were screened for their insecticidal activity towards nymphs and adults of cowpea aphid.\n(§2) The insecticidal activities of compounds 4 and 5 were measured by using leaf dipping method under the same reported laboratory conditions. Five concentrations of compound 4, 5 and 0.1% Tween-80 as a surfactant were used. Nearly the same size 30 nymphs and 30 adults of cowpea aphid insects were used for dipping for 10 second in every concentration of each compound (repeat three times). Insects which tested were allowed to stand to dry at room temperature for about half an hour. In the control experiment, the insects were dunked in distilled water and 0.1% tween-80 only. These applications were carried out at 5% relative humidity, and at a temperature of 25° C. After the used insect had dried, they were transferred to glass jars containing water. With a new binocular microscope, the aphid mortality was taken after 24 hrs of treatment. Any aphid that was unable to move was considered dead. The LC50 values used to evaluate the insecticidal activity were estimated by probit analysis."}, "[2]": {"tested_on": "nymphs of cowpea aphid (Aphis craccivora)", "experiment": "Leaf dipping insecticidal bioassay, nymphs of cowpea aphid", "type": "in vivo", "settings": "24 h; for LC50: Aphis craccivora, foliar; for Toxic ratio: Acetamiprid's LC50 / the compound's LC50", "procedure": "as §1, §2"}, "[3]": {"settings": "adults, after 24 h of treatment, leaf dipping, probit analysis, read-out: LC50"}, "[4]": {"settings": "nymphs, after 24 h of treatment, leaf dipping, probit analysis, read-out: LC50"}}, "note": "Read-outs that look alike come from different tables or passages of the source."}
{"smiles": "C/C(=N\\C#N)N(C)Cc1ccc(Cl)nc1", "note": "[Acetamiprid, acetamiprid, reference compound]", "values": [{"measurement": "LC50", "setting": "[1]", "value": 0.267, "unit": "µg/mL"}, {"measurement": "Toxic ratio", "setting": "[1]; adults", "value": 1}, {"measurement": "LC50", "setting": "[2]", "value": 0.045, "unit": "µg/mL"}, {"measurement": "Toxic ratio", "setting": "[2]; nymphs", "value": 1}]}
{"smiles": "CCOc1nc(-c2ccccc2)cc(-c2cccnc2)c1C#N", "note": "[Compound 4, 2′-Ethoxy-6′-phenyl[3,4′-bipyridine]-3′-carbonitrile]", "values": [{"measurement": "LC50", "setting": "[1]; [3]", "value": "~1.3", "unit": "µg/mL"}, {"measurement": "Toxic ratio", "setting": "[1]; adults", "value": 0.205}, {"measurement": "LC50", "setting": "[2]; [4]", "value": "~0.0781", "unit": "µg/mL"}, {"measurement": "Toxic ratio", "setting": "[2]; nymphs", "value": 0.576}]}
{"smiles": "COc1nc(-c2ccccc2)cc(-c2cccnc2)c1C#N", "note": "[Compound 5, 2′-Methoxy-6′-phenyl[3,4′-bipyridine]-3′-carbonitrile]", "values": [{"measurement": "LC50", "setting": "[1]; [3]", "value": 1.4, "unit": "µg/mL"}, {"measurement": "Toxic ratio", "setting": "[1]; adults", "value": 0.190}, {"measurement": "LC50", "setting": "[2]; [4]", "value": "~0.0842", "unit": "µg/mL"}, {"measurement": "Toxic ratio", "setting": "[2]; nymphs", "value": 0.0534}]}
